Assay results taken from ChEMBL document CHEMBL5365420, “Kinetics, Thermodynamics, and Structural Effects of Quinoline-2-Carboxylates, Zinc-Binding Inhibitors of New Delhi Metallo-β-lactamase-1 Re-sensitizing Multidrug-Resistant Bacteria for Carbapenems” (J Med Chem, 2023).

Tests used:
[1] = target: T1, Metallo-beta-lactamase type 2 (Bacteria, UniProt C7C422)
Description: Binding affinity to C-terminal 6His-tagged full length biotin-labeled NDM-1 (unknown origin) expressed in Escherichia coli BL21-DE3 assessed as dissociation constant by BLI assay

Acinetobacter baumannii [2] = assay: Antibacterial activity against clinical isolate Acinetobacter baumannii IC 19/09 expressing blaNDM-1 co-expressing blaOXA-64 assessed as meropenem MIC at 36.44 uM measured after 20 hrs by broth microdilution assay (reference value: 12 mg/L); type: functional
Escherichia coli [3] = assay: Antibacterial activity against clinical isolate Escherichia coli K12 J53-ST10 618/15 expressing blaNDM-1 assessed as meropenem MIC at 36.44 uM measured after 20 hrs by broth microdilution assay (reference value: 12 mg/L); type: functional
Escherichia coli [4] = assay: Antibacterial activity against clinical isolate Escherichia coli 371/12 expressing blaNDM-7 co-expressing blaCTX-M-15 and blaOXA-1 assessed as meropenem MIC at 36.44 uM measured after 20 hrs by broth microdilution assay (reference value: 12 mg/L); type: functional
Escherichia coli [5] = assay: Antibacterial activity against clinical isolate Escherichia coli K12 J53-ST10 684/18 expressing blaNDM-1 co-expressing blaCMY-2 and blaOXA-10 assessed as meropenem MIC at 72.88 uM measured after 20 hrs by broth microdilution assay (reference value: 24 mg/L); type: functional
[6] = target: T1, Metallo-beta-lactamase type 2; remark: listed apart in the source
Description: Binding affinity to C-terminal 6His-tagged full length truncated NDM-1 (unknown origin) expressed in Escherichia coli BL21-DE3 assessed as dissociation constant by isothermal titration calorimetric analysis

Klebsiella pneumoniae [7] = assay: Antibacterial activity against clinical isolate Klebsiella pneumoniae 50/11 expressing blaNDM-1 co-expressing blaTEM-1/blaSHV-28/blaTEM-1/blaCTX-M-15 and blaOXA-1 assessed as meropenem MIC at 72.88 uM measured after 20 hrs by broth microdilution assay (reference value: 24 mg/L); type: functional
Klebsiella pneumoniae [8] = assay: Antibacterial activity against clinical isolate Klebsiella pneumoniae ST23213/19 expressing blaNDM-1 co-expressing blaOXA-48/blaSHV-11/blaCTX-M-15 and blaOXA-1 assessed as meropenem MIC at 36.44 uM measured after 20 hrs by broth microdilution assay (reference value: 12 mg/L); type: functional
[9] = target: T1, Metallo-beta-lactamase type 2; remark: listed apart in the source
Description: Inhibition of C-terminal 6His-tagged full length NDM-1 (unknown origin) expressed in Escherichia coli BL21-DE3 using nitrocefin as substrate incubated for 15 mins followed by substrate addition by absorbance based microplate reader analysis

Klebsiella pneumoniae [10] = assay: Antibacterial activity against clinical isolate Klebsiella pneumoniae 62/07 expressing blaVIM-19 co-expressing blaSHV-1/blaCTX-M-14 and blaCMY-4 assessed as meropenem MIC at 36.44 uM measured after 20 hrs by broth microdilution assay (reference value: 12 mg/L); type: functional
Klebsiella pneumoniae [11] = assay: Antibacterial activity against clinical isolate Klebsiella pneumoniae 50/11 expressing blaNDM-1 co-expressing blaTEM-1/blaSHV-28/blaTEM-1/blaCTX-M-15 and blaOXA-1 assessed as meropenem MIC at 36.44 uM measured after 20 hrs by broth microdilution assay (reference value: 12 mg/L); type: functional
[12] = target: Metallo-beta-lactamase type 2 (Bacteria) (UniProt C7C422)
Metallo-beta-lactamase type 2 (Bacteria), sequence (C7C422 whole entry): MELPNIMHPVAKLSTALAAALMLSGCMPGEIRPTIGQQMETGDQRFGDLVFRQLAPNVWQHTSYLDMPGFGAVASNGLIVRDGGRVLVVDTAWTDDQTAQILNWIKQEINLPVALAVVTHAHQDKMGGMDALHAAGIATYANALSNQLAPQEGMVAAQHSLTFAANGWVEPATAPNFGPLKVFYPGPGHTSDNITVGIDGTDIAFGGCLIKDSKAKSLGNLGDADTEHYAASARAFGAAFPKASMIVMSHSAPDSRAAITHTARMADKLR
Description: Binding affinity to C-terminal 6His-tagged full length truncated NDM-1 (unknown origin) expressed in Escherichia coli BL21-DE3 assessed as change in enthalpy by isothermal titration calorimetric analysis

Escherichia coli [13] = assay: Antibacterial activity against clinical isolate Escherichia coli 371/12 expressing blaNDM-7 co-expressing blaCTX-M-15 and blaOXA-1 assessed as meropenem MIC at 72.88 uM measured after 20 hrs by broth microdilution assay (reference value: 24 mg/L); type: functional
[14] = target: 72 kDa type IV collagenase (Homo sapiens, UniProt P08253); assay: Binding affinity to human recombinant MMP-2 CD assessed as inhibition constant using OMNIMMP as substrate incubated for 30 mins by fluorescence based analysis
72 kDa type IV collagenase, sequence (P08253 whole entry): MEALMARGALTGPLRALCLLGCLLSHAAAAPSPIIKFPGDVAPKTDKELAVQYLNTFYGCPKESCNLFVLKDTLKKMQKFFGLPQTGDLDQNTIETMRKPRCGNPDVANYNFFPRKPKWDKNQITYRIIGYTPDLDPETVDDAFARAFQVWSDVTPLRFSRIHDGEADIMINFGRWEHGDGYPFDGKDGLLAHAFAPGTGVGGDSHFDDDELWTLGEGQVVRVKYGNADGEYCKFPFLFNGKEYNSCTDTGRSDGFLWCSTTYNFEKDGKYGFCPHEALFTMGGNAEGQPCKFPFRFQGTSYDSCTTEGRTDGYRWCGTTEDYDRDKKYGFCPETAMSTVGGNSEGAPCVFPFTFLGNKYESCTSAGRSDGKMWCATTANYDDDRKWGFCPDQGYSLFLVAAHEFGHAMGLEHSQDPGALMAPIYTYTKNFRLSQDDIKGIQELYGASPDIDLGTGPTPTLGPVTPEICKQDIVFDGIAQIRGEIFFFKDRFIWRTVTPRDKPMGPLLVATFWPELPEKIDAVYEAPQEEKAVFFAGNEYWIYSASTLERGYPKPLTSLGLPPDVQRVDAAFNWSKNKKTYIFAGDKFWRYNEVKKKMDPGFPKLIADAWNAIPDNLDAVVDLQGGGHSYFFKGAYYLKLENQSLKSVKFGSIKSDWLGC

Escherichia coli [15] = assay: Antibacterial activity against clinical isolate Escherichia coli ST1012/10 expressing blaNDM-1 co-expressing blaTEM-1/blaCTX-M-15/blaOXA-1 and blaOXA-2 assessed as meropenem MIC at 72.88 uM measured after 20 hrs by broth microdilution assay (reference value: 24 mg/L); type: functional
[16] = Selectivity ratio of Ki for human recombinant MMP-2 CD to Ki for C-terminal 6His-tagged full length NDM-1 (unknown origin)
[17] = target: Metallo-beta-lactamase type 2 (Bacteria) (UniProt C7C422); remark: listed apart in the source
Description: Binding affinity to C-terminal 6His-tagged full length truncated NDM-1 (unknown origin) expressed in Escherichia coli BL21-DE3 assessed as change in entropy by isothermal titration calorimetric analysis

[18] = target: Metallo-beta-lactamase type 2 (Bacteria) (UniProt C7C422); remark: listed apart in the source
Description: Binding affinity to C-terminal 6His-tagged full length truncated NDM-1 (unknown origin) expressed in Escherichia coli BL21-DE3 assessed as change in Gibbs free energy by isothermal titration calorimetric analysis

[19] = Inhibition of IMP-1 (unknown origin) expressed in Escherichia coli BL21-DE3 incubated for 15 mins by absorbance based microplate reader analysis; parameters: species or system Bacteria
Klebsiella pneumoniae [20] = assay: Antibacterial activity against clinical isolate Klebsiella pneumoniae 62/07 expressing blaVIM-19 co-expressing blaSHV-1/blaCTX-M-14 and blaCMY-4 assessed as meropenem MIC at 72.88 uM measured after 20 hrs by broth microdilution assay (reference value: 24 mg/L); type: functional
Klebsiella pneumoniae [21] = assay: Antibacterial activity against clinical isolate Klebsiella pneumoniae ST1493/10 expressing blaNDM-1 co-expressing blaCMY-2like/blaTEM-1/blaCTX-M-15/blaSHV-28/blaOXA-1 and blaOXA-9 assessed as meropenem MIC at 72.88 uM measured after 20 hrs by broth microdilution assay (reference value: 24 mg/L); type: functional
Klebsiella pneumoniae [22] = assay: Antibacterial activity against clinical isolate Klebsiella pneumoniae 50/20 expressing blaNDM-5 co-expressing blaTEM-1 and blaSHV-1 assessed as meropenem MIC at 36.44 uM measured after 20 hrs by broth microdilution assay (reference value: 12 mg/L); type: functional
[23] = target: Metallo-beta-lactamase type 2 (Bacteria) (UniProt C7C422); remark: listed apart in the source
Description: Binding affinity to C-terminal 6His-tagged full length truncated NDM-1 (unknown origin) expressed in Escherichia coli BL21-DE3 assessed as change in enthalpy in presence of EDTA by isothermal titration calorimetric analysis

Escherichia coli [24] = assay: Antibacterial activity against clinical isolate Escherichia coli ST1012/10 expressing blaNDM-1 co-expressing blaTEM-1/blaCTX-M-15/blaOXA-1 and blaOXA-2 assessed as meropenem MIC at 36.44 uM measured after 20 hrs by broth microdilution assay (reference value: 12 mg/L); type: functional
Acinetobacter baumannii [25] = assay: Antibacterial activity against clinical isolate Acinetobacter baumannii IC 19/09 expressing blaNDM-1 co-expressing blaOXA-64 assessed as meropenem MIC at 72.88 uM measured after 20 hrs by broth microdilution assay (reference value: 24 mg/L); type: functional
[26] = target: Histone deacetylase 1 (Homo sapiens) (UniProt Q13547); assay: Inhibition of C-terminal 6His/FLAG-tagged human recombinant full-length HDAC1 (1 to 482(end) residues) at 10 uM using Boc-Lys-(Ac)-AMC as substrate incubated for 10 mins followed by substrate addition measured after 1 hr by fluorescence based analysis relative to control; conditions: time 70.0 min
Histone deacetylase 1 (Homo sapiens), sequence (Q13547 whole entry): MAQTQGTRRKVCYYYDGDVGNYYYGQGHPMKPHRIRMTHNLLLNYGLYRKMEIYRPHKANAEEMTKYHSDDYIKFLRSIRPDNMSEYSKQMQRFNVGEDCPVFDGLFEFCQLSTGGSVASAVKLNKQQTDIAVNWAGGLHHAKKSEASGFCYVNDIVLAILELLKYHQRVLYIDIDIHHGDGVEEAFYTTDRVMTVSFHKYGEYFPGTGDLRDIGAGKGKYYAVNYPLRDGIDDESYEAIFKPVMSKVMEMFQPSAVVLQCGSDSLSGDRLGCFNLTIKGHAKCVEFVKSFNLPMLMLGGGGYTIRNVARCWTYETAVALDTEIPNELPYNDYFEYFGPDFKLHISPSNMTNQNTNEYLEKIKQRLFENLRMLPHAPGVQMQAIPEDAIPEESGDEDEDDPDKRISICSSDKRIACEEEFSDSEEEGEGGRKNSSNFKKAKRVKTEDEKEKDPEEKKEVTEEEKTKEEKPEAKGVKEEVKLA

Escherichia coli [27] = assay: Antibacterial activity against clinical isolate Escherichia coli K12 J53-ST10 696/17 expressing blaNDM-1 co-expressing blaCMY-4 assessed as meropenem MIC at 36.44 uM measured after 20 hrs by broth microdilution assay (reference value: 12 mg/L); type: functional
Escherichia coli [28] = assay: Antibacterial activity against clinical isolate Escherichia coli K12 J53-ST10 696/17 expressing blaNDM-1 co-expressing blaCMY-4 assessed as meropenem MIC at 72.88 uM measured after 20 hrs by broth microdilution assay (reference value: 24 mg/L); type: functional

T1 sequence (C7C422 whole entry): as the sequence (C7C422 whole entry) above

Compound O=C(O)c1ccc2cccc(NS(=O)(=O)c3ccccn3)c2n1 has a Kd [1] of 14.1 µM, an MIC (Acinetobacter baumannii [2]) of 4 µg/mL and an MIC (Escherichia coli [3]) of at most 0.125 µg/mL. The MIC (Escherichia coli [4]) was 8 µg/mL, the MIC (Escherichia coli [5]) was at most 0.125 µg/mL and the Kd [6] was 105 nM. For the same compound, the MIC (Klebsiella pneumoniae [7]) was at most 0.125 µg/mL, the MIC (Klebsiella pneumoniae [8]) was 16 µg/mL and the IC50 [9] was 290 nM. The MIC (Klebsiella pneumoniae [10]) was 2 µg/mL, the MIC (Klebsiella pneumoniae [11]) was at most 0.125 µg/mL and the deltaH [12] was -27.6 kJ/mol. It also gave an MIC (Escherichia coli [13]) of at most 0.125 µg/mL, a Ki [14] of 5.78 µM and an MIC (Escherichia coli [15]) of at most 0.125 µg/mL. It also gave a Ratio Ki [16] of 40, a -TdeltaS [17] of -12.2 kJ/mol and a deltaG [18] of -39.9 kJ/mol. The IC50 [19] was 370 nM, the MIC (Klebsiella pneumoniae [20]) was 0.25 µg/mL and the MIC (Klebsiella pneumoniae [21]) was 1 µg/mL. It also gave an MIC (Klebsiella pneumoniae [22]) of 0.5 µg/mL, a deltaH [23] of -40 kJ/mol and an MIC (Escherichia coli [24]) of at most 0.125 µg/mL. The MIC (Acinetobacter baumannii [25]) was 1 µg/mL, the inhibition [26] was under 5% and the MIC (Escherichia coli [27]) was at most 0.125 µg/mL. It also gave an MIC (Escherichia coli [28]) of at most 0.125 µg/mL.
